Results from ChEMBL document CHEMBL4507280 (2021).

Tests used:
[1] = biological target: Serine/threonine-protein kinase Nek1 (Homo sapiens) (UniProt Q96PY6); details: Compound concentration 1000.0 nM
[2] = biological target: Tyrosine-protein kinase Lyn (Homo sapiens) (UniProt P07948); details: Compound concentration 1000.0 nM
[3] = biological target: 5-hydroxytryptamine receptor 5A (Homo sapiens) (UniProt P47898); details: Compound concentration 10.0 uM
[4] = biological target: MAP kinase-activated protein kinase 5 (Homo sapiens) (UniProt Q8IW41); details: Compound concentration 1000.0 nM
[5] = biological target: Dual specificity protein kinase CLK3 (Homo sapiens) (UniProt P49761); details: Compound concentration 1000.0 nM
[6] = biological target: Serine/threonine-protein kinase WNK1 (Homo sapiens) (UniProt Q9H4A3); details: Compound concentration 1000.0 nM
[7] = biological target: Activin receptor type-1 (Homo sapiens) (UniProt Q04771); details: Compound concentration 1000.0 nM
[8] = tested on: Receptor-type tyrosine-protein kinase FLT3 (Homo sapiens), P36888 [UNDEFINED MUTATION]; details: Compound concentration 1000.0 nM
[9] = biological target: Sodium-dependent dopamine transporter (Homo sapiens) (UniProt Q01959); details: Compound concentration 10.0 uM
[10] = biological target: Macrophage colony-stimulating factor 1 receptor (Homo sapiens) (UniProt P07333); details: Compound concentration 1000.0 nM
[11] = biological target: Ribosomal protein S6 kinase alpha-2 (Homo sapiens) (UniProt Q15349); details: Compound concentration 1000.0 nM
[12] = biological target: Serine/threonine-protein kinase Nek3 (Homo sapiens) (UniProt P51956); details: Compound concentration 1000.0 nM
[13] = biological target: Serine/threonine-protein kinase pim-2 (Homo sapiens) (UniProt Q9P1W9); details: Compound concentration 1000.0 nM
[14] = tested on: Receptor-type tyrosine-protein kinase FLT3 (Homo sapiens), P36888 [D835Y]; details: Compound concentration 1000.0 nM
[15] = biological target: Maternal embryonic leucine zipper kinase (Homo sapiens) (UniProt Q14680); details: Compound concentration 1000.0 nM
[16] = biological target: cAMP-dependent protein kinase catalytic subunit PRKX (Homo sapiens) (UniProt P51817); details: Compound concentration 1000.0 nM
[17] = tested on: Tyrosine-protein kinase ABL1 (Homo sapiens), P00519 [T315I]; details: Compound concentration 1000.0 nM
[18] = biological target: Dual specificity protein kinase TTK (Homo sapiens) (UniProt P33981); details: Compound concentration 1000.0 nM
[19] = biological target: Macrophage-stimulating protein receptor (Homo sapiens) (UniProt Q04912); details: Compound concentration 1000.0 nM
[20] = tested on: Epidermal growth factor receptor (Homo sapiens), P00533 [UNDEFINED MUTATION]; details: Compound concentration 1000.0 nM
[21] = biological target: Mitogen-activated protein kinase kinase kinase 14 (Homo sapiens) (UniProt Q99558); details: Compound concentration 1000.0 nM
[22] = biological target: Tyrosine-protein kinase Mer (Homo sapiens) (UniProt Q12866); details: Compound concentration 1000.0 nM
[23] = biological target: Myosin light chain kinase, smooth muscle (Homo sapiens) (UniProt Q15746); details: Compound concentration 1000.0 nM
[24] = biological target: NT-3 growth factor receptor (Homo sapiens) (UniProt Q16288); details: Compound concentration 1000.0 nM
[25] = biological target: Serine/threonine-protein kinase 10 (Homo sapiens) (UniProt O94804); details: Compound concentration 1000.0 nM
[26] = biological target: Protein kinase C theta type (Homo sapiens) (UniProt Q04759); details: Compound concentration 1000.0 nM
[27] = tested on: Receptor-type tyrosine-protein kinase FLT3 (Homo sapiens), P36888 [D835V]; details: Compound concentration 1000.0 nM
[28] = biological target: Serine/threonine-protein kinase Nek11 (Homo sapiens) (UniProt Q8NG66); details: Compound concentration 1000.0 nM
[29] = biological target: Tyrosine-protein kinase BTK (Homo sapiens) (UniProt Q06187); details: Compound concentration 1000.0 nM
[30] = biological target: Serine/threonine-protein kinase RIO3 (Homo sapiens) (UniProt O14730); details: Compound concentration 1000.0 nM
[31] = biological target: Platelet-derived growth factor receptor alpha (Homo sapiens) (UniProt P16234); details: Compound concentration 1000.0 nM
[32] = biological target: Serine/threonine-protein kinase LATS2 (Homo sapiens) (UniProt Q9NRM7); details: Compound concentration 1000.0 nM
[33] = biological target: Cyclin-dependent kinase 4 (Homo sapiens) (UniProt P11802); details: Compound concentration 1000.0 nM
[34] = biological target: Phosphatidylinositol 4,5-bisphosphate 3-kinase catalytic subunit beta isoform (Homo sapiens) (UniProt P42338); details: Compound concentration 1000.0 nM
[35] = biological target: Serine/threonine-protein kinase TAO3 (Homo sapiens) (UniProt Q9H2K8); details: Compound concentration 1000.0 nM
[36] = biological target: Cyclin-dependent kinase 2 homolog (Plasmodium falciparum (isolate 3D7)) (UniProt P61075); details: Compound concentration 1000.0 nM
[37] = biological target: MAP kinase-interacting serine/threonine-protein kinase 2 (Homo sapiens) (UniProt Q9HBH9); details: Compound concentration 1000.0 nM
[38] = tested on: Phosphatidylinositol 4,5-bisphosphate 3-kinase catalytic subunit alpha isoform (Homo sapiens), P42336 [H1047Y]; details: Compound concentration 1000.0 nM
[39] = tested on: Mast/stem cell growth factor receptor Kit (Homo sapiens), P10721 [D816H]; details: Compound concentration 1000.0 nM
[40] = biological target: Serine/threonine-protein kinase RIO2 (Homo sapiens) (UniProt Q9BVS4); details: Compound concentration 1000.0 nM
[41] = biological target: MAP/microtubule affinity-regulating kinase 4 (Homo sapiens) (UniProt Q96L34); details: Compound concentration 1000.0 nM
[42] = biological target: BDNF/NT-3 growth factors receptor (Homo sapiens) (UniProt Q16620); details: Compound concentration 1000.0 nM
[43] = biological target: Serine/threonine-protein kinase WNK2 (Homo sapiens) (UniProt Q9Y3S1); details: Compound concentration 1000.0 nM
[44] = biological target: Cyclin-G-associated kinase (Homo sapiens) (UniProt O14976); details: Compound concentration 1000.0 nM
[45] = biological target: Tyrosine-protein kinase Yes (Homo sapiens) (UniProt P07947); details: Compound concentration 1000.0 nM

Sequence of BDNF/NT-3 growth factors receptor (Homo sapiens) (Q16620 32-822 limits assumed): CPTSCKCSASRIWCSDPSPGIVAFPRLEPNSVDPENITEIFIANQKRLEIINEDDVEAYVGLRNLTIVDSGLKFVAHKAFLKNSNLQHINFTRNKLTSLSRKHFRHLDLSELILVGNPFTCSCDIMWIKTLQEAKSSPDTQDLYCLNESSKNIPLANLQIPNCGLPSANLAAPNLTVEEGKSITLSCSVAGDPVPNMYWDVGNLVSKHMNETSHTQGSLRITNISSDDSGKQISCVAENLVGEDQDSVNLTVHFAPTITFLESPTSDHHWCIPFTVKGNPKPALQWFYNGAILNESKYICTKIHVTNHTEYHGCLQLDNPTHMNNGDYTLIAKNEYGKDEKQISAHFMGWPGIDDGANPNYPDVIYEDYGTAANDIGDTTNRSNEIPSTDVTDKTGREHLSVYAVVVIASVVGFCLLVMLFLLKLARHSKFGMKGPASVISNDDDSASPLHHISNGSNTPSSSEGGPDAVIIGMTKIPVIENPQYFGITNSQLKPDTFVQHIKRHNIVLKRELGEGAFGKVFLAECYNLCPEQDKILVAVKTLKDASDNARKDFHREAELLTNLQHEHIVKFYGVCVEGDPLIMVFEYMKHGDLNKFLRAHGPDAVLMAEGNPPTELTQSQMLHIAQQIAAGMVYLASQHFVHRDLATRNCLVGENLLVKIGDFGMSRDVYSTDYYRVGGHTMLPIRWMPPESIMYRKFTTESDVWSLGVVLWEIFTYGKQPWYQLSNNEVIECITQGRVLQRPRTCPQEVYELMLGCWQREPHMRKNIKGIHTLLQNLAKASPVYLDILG
Sequence of MAP kinase-interacting serine/threonine-protein kinase 2 (Homo sapiens) (Q9HBH9 whole entry, looked up, canonical isoform): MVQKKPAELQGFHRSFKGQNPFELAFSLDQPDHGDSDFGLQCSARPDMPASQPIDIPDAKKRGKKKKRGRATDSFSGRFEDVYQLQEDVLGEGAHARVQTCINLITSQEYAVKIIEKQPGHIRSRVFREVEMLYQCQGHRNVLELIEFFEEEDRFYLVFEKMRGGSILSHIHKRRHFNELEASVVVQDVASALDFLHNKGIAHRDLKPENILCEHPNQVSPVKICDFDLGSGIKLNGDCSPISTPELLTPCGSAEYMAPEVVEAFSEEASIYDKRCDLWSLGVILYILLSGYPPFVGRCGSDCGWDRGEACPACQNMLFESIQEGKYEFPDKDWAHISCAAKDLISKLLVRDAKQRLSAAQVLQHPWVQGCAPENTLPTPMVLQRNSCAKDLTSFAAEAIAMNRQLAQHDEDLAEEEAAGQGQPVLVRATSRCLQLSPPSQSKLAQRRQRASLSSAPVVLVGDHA
Sequence of Sodium-dependent dopamine transporter (Homo sapiens) (Q01959 whole entry): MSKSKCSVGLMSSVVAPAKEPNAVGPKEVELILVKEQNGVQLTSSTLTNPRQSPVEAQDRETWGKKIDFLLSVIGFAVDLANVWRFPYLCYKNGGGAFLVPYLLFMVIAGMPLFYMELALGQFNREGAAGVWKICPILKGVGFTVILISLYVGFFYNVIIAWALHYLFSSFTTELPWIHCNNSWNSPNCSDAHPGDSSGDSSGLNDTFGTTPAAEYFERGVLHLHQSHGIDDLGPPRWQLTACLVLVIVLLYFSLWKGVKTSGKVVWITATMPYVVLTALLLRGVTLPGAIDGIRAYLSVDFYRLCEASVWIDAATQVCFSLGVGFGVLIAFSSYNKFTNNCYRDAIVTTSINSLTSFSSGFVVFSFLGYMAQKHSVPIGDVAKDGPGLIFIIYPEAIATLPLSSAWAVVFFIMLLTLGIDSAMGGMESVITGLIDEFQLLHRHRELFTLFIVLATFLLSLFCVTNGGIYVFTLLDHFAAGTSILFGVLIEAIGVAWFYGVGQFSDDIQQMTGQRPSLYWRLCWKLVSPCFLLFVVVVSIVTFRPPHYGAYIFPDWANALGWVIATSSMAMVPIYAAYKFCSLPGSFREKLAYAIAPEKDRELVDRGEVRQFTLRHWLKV
Sequence of Protein kinase C theta type (Homo sapiens) (Q04759 whole entry, looked up): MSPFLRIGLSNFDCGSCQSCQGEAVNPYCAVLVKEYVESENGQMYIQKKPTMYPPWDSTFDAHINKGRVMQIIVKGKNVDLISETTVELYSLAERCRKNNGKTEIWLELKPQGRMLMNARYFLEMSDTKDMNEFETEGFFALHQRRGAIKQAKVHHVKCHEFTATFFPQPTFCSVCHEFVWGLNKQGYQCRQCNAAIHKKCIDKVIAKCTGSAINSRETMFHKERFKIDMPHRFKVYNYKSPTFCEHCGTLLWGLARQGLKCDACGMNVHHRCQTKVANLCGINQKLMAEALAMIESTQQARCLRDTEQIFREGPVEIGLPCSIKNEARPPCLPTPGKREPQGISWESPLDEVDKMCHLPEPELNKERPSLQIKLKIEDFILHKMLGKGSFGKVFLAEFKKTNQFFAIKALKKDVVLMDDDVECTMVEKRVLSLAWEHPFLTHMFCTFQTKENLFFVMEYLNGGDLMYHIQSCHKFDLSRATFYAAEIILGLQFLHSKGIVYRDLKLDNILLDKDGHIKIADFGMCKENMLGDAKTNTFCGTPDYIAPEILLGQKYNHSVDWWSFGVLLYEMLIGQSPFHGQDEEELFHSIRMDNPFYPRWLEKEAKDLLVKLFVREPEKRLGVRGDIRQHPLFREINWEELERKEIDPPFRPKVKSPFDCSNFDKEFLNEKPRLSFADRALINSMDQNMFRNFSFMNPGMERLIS
Sequence of Serine/threonine-protein kinase RIO2 (Homo sapiens) (Q9BVS4 whole entry, looked up): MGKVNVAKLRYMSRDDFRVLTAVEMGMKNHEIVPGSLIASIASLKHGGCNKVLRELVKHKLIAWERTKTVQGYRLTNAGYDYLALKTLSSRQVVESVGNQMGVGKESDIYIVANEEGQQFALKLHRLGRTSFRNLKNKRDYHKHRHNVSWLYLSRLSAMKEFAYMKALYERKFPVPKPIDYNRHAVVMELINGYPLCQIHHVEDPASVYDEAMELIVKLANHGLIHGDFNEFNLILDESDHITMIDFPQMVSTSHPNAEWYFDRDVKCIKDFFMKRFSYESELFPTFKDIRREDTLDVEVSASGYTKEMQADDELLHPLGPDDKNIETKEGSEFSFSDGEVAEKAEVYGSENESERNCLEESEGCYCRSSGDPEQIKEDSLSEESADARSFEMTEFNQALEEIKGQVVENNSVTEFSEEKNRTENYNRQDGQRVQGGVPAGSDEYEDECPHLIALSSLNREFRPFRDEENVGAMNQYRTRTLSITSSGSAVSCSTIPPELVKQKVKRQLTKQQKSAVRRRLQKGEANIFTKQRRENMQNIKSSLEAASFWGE
Sequence of Maternal embryonic leucine zipper kinase (Homo sapiens) (Q14680 whole entry, looked up): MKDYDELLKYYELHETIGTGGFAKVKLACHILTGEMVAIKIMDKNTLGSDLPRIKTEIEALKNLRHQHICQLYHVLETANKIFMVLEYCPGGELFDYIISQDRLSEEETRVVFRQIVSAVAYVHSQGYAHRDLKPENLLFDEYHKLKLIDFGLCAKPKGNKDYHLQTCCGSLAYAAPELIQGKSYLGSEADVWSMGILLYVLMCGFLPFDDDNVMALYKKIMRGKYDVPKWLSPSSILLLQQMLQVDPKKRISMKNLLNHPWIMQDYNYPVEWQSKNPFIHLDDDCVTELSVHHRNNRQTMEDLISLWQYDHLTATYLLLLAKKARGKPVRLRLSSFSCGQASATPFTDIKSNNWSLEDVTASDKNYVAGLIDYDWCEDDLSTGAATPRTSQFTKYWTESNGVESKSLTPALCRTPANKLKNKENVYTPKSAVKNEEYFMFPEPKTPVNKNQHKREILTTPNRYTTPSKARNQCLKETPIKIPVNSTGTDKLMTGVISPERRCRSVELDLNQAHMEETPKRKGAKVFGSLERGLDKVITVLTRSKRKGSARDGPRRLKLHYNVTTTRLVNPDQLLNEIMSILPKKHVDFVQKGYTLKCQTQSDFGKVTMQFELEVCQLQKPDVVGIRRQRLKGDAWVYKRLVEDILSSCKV
Sequence of cAMP-dependent protein kinase catalytic subunit PRKX (Homo sapiens) (P51817 whole entry): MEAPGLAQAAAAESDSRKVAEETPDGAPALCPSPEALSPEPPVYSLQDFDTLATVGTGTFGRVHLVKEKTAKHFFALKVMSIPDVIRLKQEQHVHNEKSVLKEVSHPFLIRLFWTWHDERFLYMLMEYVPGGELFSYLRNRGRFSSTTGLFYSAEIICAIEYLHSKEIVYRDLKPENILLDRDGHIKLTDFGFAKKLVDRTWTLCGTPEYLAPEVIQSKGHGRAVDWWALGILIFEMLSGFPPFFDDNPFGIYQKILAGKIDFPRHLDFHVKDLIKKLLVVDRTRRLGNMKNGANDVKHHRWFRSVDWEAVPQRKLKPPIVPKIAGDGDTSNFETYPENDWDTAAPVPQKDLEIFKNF
Sequence of Serine/threonine-protein kinase Nek11 (Homo sapiens) (Q8NG66 whole entry): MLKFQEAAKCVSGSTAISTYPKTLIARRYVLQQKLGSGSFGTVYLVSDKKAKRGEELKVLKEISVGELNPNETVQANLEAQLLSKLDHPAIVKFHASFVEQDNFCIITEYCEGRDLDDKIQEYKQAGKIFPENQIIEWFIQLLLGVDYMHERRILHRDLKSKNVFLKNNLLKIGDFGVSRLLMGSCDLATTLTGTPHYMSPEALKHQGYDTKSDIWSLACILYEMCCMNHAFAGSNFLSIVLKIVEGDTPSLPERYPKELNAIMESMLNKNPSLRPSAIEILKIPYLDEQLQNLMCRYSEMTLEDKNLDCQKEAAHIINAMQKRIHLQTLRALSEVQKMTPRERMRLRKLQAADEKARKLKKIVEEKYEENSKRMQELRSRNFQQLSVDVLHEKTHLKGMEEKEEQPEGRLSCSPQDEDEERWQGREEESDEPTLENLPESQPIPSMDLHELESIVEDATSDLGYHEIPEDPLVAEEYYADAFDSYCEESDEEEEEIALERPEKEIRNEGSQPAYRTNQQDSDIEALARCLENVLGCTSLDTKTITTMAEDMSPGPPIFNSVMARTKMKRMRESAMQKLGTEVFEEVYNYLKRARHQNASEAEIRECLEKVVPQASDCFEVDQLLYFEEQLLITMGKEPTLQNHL

Question: Which residual activity [1] does the source give for CCC(=O)N[C@H]1CC[C@@H](C(=O)N(C)c2ccc(-c3nc4ccccc4o3)cc2)C1 [BI 99179] here?
Answer: 100%

Question: And the residual activity [2]?
Answer: 100%

Question: And the inhibition [3]?
Answer: -1.85%

Question: What about the residual activity [4] of the same molecule?
Answer: 73%

Question: What about the residual activity [5] of the same molecule?
Answer: 91%

Question: And the residual activity [6]?
Answer: 100%

Question: And the residual activity [7]?
Answer: 85%

Question: What about the residual activity [8] of the same molecule?
Answer: 100%

Question: And the inhibition [9]?
Answer: 77.3%

Question: And the residual activity [10]?
Answer: 56%

Question: What about the residual activity [11] of the same molecule?
Answer: 100%

Question: What about the residual activity [12] of the same molecule?
Answer: 66%

Question: And the residual activity [13]?
Answer: 100%

Question: And the residual activity [14]?
Answer: 100%

Question: And the residual activity [15]?
Answer: 94%

Question: What about the residual activity [16] of the same molecule?
Answer: 91%

Question: And the residual activity [17]?
Answer: 86%

Question: And the residual activity [18]?
Answer: 100%

Question: And the residual activity [19]?
Answer: 87%

Question: And the residual activity [20]?
Answer: 97%

Question: And the residual activity [21]?
Answer: 92%

Question: And the residual activity [22]?
Answer: 100%

Question: What about the residual activity [23] of the same molecule?
Answer: 69%

Question: And the residual activity [24]?
Answer: 32%

Question: What about the residual activity [25] of the same molecule?
Answer: 100%

Question: And the residual activity [26]?
Answer: 84%

Question: And the residual activity [27]?
Answer: 73%

Question: What about the residual activity [28] of the same molecule?
Answer: 86%

Question: What about the residual activity [29] of the same molecule?
Answer: 77%

Question: And the residual activity [30]?
Answer: 92%

Question: What about the residual activity [31] of the same molecule?
Answer: 85%

Question: And the residual activity [32]?
Answer: 67%

Question: And the residual activity [33]?
Answer: 79%

Question: And the residual activity [34]?
Answer: 100%

Question: What about the residual activity [35] of the same molecule?
Answer: 70%

Question: And the residual activity [36]?
Answer: 80%

Question: What about the residual activity [37] of the same molecule?
Answer: 100%

Question: And the residual activity [38]?
Answer: 97%

Question: What about the residual activity [39] of the same molecule?
Answer: 85%

Question: What about the residual activity [40] of the same molecule?
Answer: 84%

Question: What about the residual activity [41] of the same molecule?
Answer: 100%

Question: And the residual activity [42]?
Answer: 100%

Question: And the residual activity [43]?
Answer: 74%

Question: And the residual activity [44]?
Answer: 100%

Question: And the residual activity [45]?
Answer: 82%

Question: Which residual activity [1] does the source give for CCC(=O)N[C@@H]1CC[C@H](C(=O)N(C)c2ccc(-c3nc4ccccc4o3)cc2)C1 [BI 99990] here?
Answer: 100%

Question: What about the residual activity [2] of the same molecule?
Answer: 92%

Question: And the inhibition [3]?
Answer: -3.5%

Question: What about the residual activity [4] of the same molecule?
Answer: 100%

Question: What about the residual activity [5] of the same molecule?
Answer: 100%

Question: What about the residual activity [6] of the same molecule?
Answer: 100%

Question: What about the residual activity [7] of the same molecule?
Answer: 94%

Question: And the residual activity [8]?
Answer: 94%

Question: And the inhibition [9]?
Answer: 23.3%

Question: What about the residual activity [10] of the same molecule?
Answer: 100%

Question: What about the residual activity [11] of the same molecule?
Answer: 100%

Question: What about the residual activity [12] of the same molecule?
Answer: 73%

Question: And the residual activity [13]?
Answer: 100%

Question: And the residual activity [14]?
Answer: 100%

Question: What about the residual activity [15] of the same molecule?
Answer: 100%

Question: What about the residual activity [16] of the same molecule?
Answer: 100%

Question: What about the residual activity [17] of the same molecule?
Answer: 79%

Question: What about the residual activity [18] of the same molecule?
Answer: 100%

Question: And the residual activity [19]?
Answer: 100%

Question: And the residual activity [20]?
Answer: 100%

Question: What about the residual activity [21] of the same molecule?
Answer: 100%

Question: And the residual activity [22]?
Answer: 100%

Question: What about the residual activity [23] of the same molecule?
Answer: 62%

Question: What about the residual activity [24] of the same molecule?
Answer: 100%

Question: And the residual activity [25]?
Answer: 89%

Question: And the residual activity [26]?
Answer: 76%

Question: What about the residual activity [27] of the same molecule?
Answer: 92%

Question: And the residual activity [28]?
Answer: 100%

Question: And the residual activity [29]?
Answer: 87%

Question: What about the residual activity [30] of the same molecule?
Answer: 100%

Question: What about the residual activity [31] of the same molecule?
Answer: 86%

Question: What about the residual activity [32] of the same molecule?
Answer: 69%

Question: What about the residual activity [33] of the same molecule?
Answer: 96%

Question: And the residual activity [34]?
Answer: 100%

Question: And the residual activity [35]?
Answer: 87%

Question: And the residual activity [36]?
Answer: 100%

Question: What about the residual activity [37] of the same molecule?
Answer: 100%

Question: And the residual activity [38]?
Answer: 100%

Question: What about the residual activity [39] of the same molecule?
Answer: 100%

Question: What about the residual activity [40] of the same molecule?
Answer: 100%

Question: What about the residual activity [41] of the same molecule?
Answer: 82%

Question: What about the residual activity [42] of the same molecule?
Answer: 100%

Question: What about the residual activity [43] of the same molecule?
Answer: 92%

Question: What about the residual activity [44] of the same molecule?
Answer: 100%

Question: What about the residual activity [45] of the same molecule?
Answer: 100%
